Data on two molecules can be found in patent US10494341B2, “Compound containing indoleacetic acid core structure and use thereof” (Beijing An Jian Xi Bio-Medical Technology Co., Ltd., priority 2015, dated 2019).

Structures are written as SMILES.

In one series the test system is gastric mucosa. The series is described as follows: Ulcer induction in rats after gavage (lesions of the gastric mucosa). Format: in vivo. As to conditions: for prevalence of ulcer / Ulcer index: gavage three times; for Ulcer index: Dose 90 μM/kg, 12 hours after last gavage; for ulcer at high concentration: gavage, high concentration (90 μM).
Series [1] has as its system mouse colon cancer cells (MCA-38). Kind of series: Killing effect of cisplatin on tumor cells with compound (LDH). As to conditions: MCA-38, 10, 30 and 90 μM, 24 hours. The class given is cell-based. As for the experimental part: (§1) The mechanism of compounds enhancing killing effect of chemotherapeutic agents on tumor cells while protecting normal cells: mouse colon cancer cells (MCA-38) and primarily-cultured normal mouse intestinal mucosa cells were cultured in a 96-well plate, respectively. 24 hours later, various concentrations (10, 30 and 90 μM) of compound b was respectively added to the cell culture medium, and incubated for 24 hours. LDH was used to detect the damage of the cells, and the cells were collected and extracted for protein. The expression levels of adenosine triphosphate-binding transporter (ABCG2) and the cell cycle-dependent protein […] (p21) were detected by immunoblotting (performed according to the instructions provided by the manufacturer). […] ABCG2 is a transporter, and can pump anticancer drugs out of the cells. […] The high expression of p21 allows the cells to be in non-dividing quiescent phase, so that cells are not sensitive to chemotherapeutic drugs or injury in other forms. The compounds of the present invention make these proteins expressed differentially in normal tissues and tumor tissues, which is one of the reasons for selectively protecting normal tissues and enhancing the sensitivity of tumors to treatment.

For series [2], the system named is normal mouse intestinal mucosa cells. The series is described as follows: Cisplatin damage of normal cells with compound (LDH). The class given is cell-based. As to conditions: all tested concentrations except the high concentration, 24 hours. As to the method: as §1
Series [3] has as its system adenosine triphosphate-binding transporter (ABCG2). Kind of series: Expression of ABCG2 by immunoblotting. The class given is cell-based, mouse. As to the method:
as §1

The subject of series [4] is cell cycle-dependent protein kinase (p21). The series is described as follows: Expression of p21 by immunoblotting. The class given is cell-based, mouse. As to the method: as §1
The test system of the next series is peripheral leukocytes. The series is described as follows: Protection against blood cell (leukocyte) damage induced by paclitaxel. The class given is in vivo. As to conditions: mice, compounds 6 mg/kg/day gavage; for protective effect on peripheral leukocytes (words): paclitaxel 10 mg/kg/day i.p.; for protective effect on leukocytes at the late stage of chemotherapy: paclitaxel. As to the method: In this experiment, 10-week-old male mice (C57BL/6J) weighing about 20 grams were used as subjects, and 6 mice were taken as a group. The mice were divided into 5 groups: 1. Paclitaxel; 2. Paclitaxel+amifostine; 3. Paclitaxel+intermediate I+intermediate II; 4. paclitaxel+compound a; and 5. paclitaxel+compound b. Firstly, each group of mice was administered with a protective agent, and the specific amounts were as follows: compounds a and b: each 6 mg/kg/day (8.1 μM), amifostine: 400 mg/kg/day (1.5 mM), intermediate I+Intermediate II: each 3 mg/kg/day (8.1 μM). Except that amifostine was intraperitoneally injected (30 minutes before administering Paclitaxel, amifostine was administered), the other protective agents were administered by gavage (once a day, 25 times continuously). 12 hours after the compound a and the corresponding protective agents were administered, Paclitaxel was intraperitoneally injected (10 mg/kg/day, once every 3 days, 9 times continuously), and 7, 14, 21, 28 days later, blood of mice was drawn respectively. The number of leukocytes was analyzed.

Series [5] in a line: Degradation of the compound in plasma (10% bovine serum medium, HPLC). Format: in vitro ADME. As to conditions: 10 μM, 37° C., within 24 hours. As for the experimental part: (§2) Determination of the stability of the compound: (1) degradation of the compound in plasma: Compound a (10 μM) dissolved in DMSO was cultured with 10% bovine serum medium (5 mL) at 37° C. 200 μL of medium was collected at the time points of 1, 3, 6, 12 and 24 hours, respectively, added with equal volume of acetonitrile for reaction, and subjected to high speed centrifugation (13,000 rpm) for 5 minutes. The level of degradation of the compound was determined by HPLC. (2) Degradation of the compound in cells: the compound a dissolved in DMSO was added at a final concentration of 10 μM to a 6-well culture dish containing SW480 cells and incubated in carbon dioxide incubator. The cells were collected at the time points of 1, 3, 6, 12, and 24 hours, respectively, washed fully, then extracted with 0.5 mL of acetonitrile, and centrifuged at high speed (12,000 rpm) for 5 minutes. The level of degradation of the compound in the organic phase was determined by HPLC.

The next series concerns SW480 cells. The series is described as follows: Degradation of the compound in cells (HPLC). As to conditions: 10 μM. Format: in vitro ADME. As to the method:
as §2

The test system of the next series is A549 cells. Kind of series: A549 transplanted tumors in nude mice, compound used alone. Format: in vivo. As to the method:
Except cisplatin (intraperitoneal injection, once a week), all compounds were administered by gavage, once a day for 5 weeks continuously.

In another series the test system is HT-29 cells. Kind of series: HT-29 transplanted tumors in nude mice, compound a in combination with doxorubicin. The class given is in vivo. Conditions: Doxorubicin 2 mg/kg/week i.p. or compound a 3 mg/kg/day gavage, 4 weeks. As to the method:
Compound a was administered by gavage once a day for 4 weeks continuously; Doxorubicin was injected intraperitoneally once a week for 4 weeks. Body weight and tumor volume of animals were measured and calculated according to Example 9.

The mark [6] stands for this setting: normal mouse intestinal mucosa cells.

With `COc1ccc2c(CC(=O)OCCCCCCCCCCc3c(C)c(O)c(OC)c(OC)c3O)c(C)n(C(=O)c3ccc(Cl)cc3)c2c1` [compound b], the prevalence of ulcer with gastric mucosa (10 μM), in the series on gastric mucosa (30 μM) and in the series on gastric mucosa (90 μM) was 0/6 each time. For the same molecule, the Ulcer index with gastric mucosa came to 0. For the same molecule, the “ulcer at high concentration” value with gastric mucosa is “does not result in ulcer”. Besides, the “killing effect of cisplatin on colon cancer cells” value in series [1] is “significantly enhances the killing effect of cisplatin”. The “cisplatin damage of normal intestinal mucosa cells” value in [2] is listed as “significantly inhibit cisplatin from damaging normal intestinal mucosa cells”. In addition, the “expression of ABCG2 in tumor cells” value in series [3] (MCA-38 cells) was “significantly inhibit expression”. The “expression of ABCG2 in normal cells” value in series [3] (setting [6]) is listed as “no influence”. Moreover, in [4] (MCA-38 cells), the “expression of p21 in tumor cells” value is listed as “no influence”. In addition, in series [4] (setting [6]), the “expression of p21 in normal intestinal mucosa cells” value is recorded as “significantly enhance the expression of p21”. In addition, the “protective effect on peripheral leukocytes (words)” value was “apparently reduce radiation-induced peripheral leukocyte damage” with peripheral leukocytes and “strongest protective effect” in the series with peripheral leukocytes (listed as Compound b). Further, the “protective effect on leukocytes at the late stage of chemotherapy” value in the series on peripheral leukocytes is listed as “significantly better than that of amifostine”.
For `COC1=C(OC)C(=O)C(CCCCCCCCCCOC(=O)Cc2c(C)n(C(=O)c3ccc(Cl)cc3)c3cc(OC)ccc23)=C(C)C1=O` [compound a], the “compound hydrolyzed in bovine serum” value in series [5] was found to be 11%. Moreover, the “compound hydrolyzed in cells” value was ~80% in the series on SW480 cells (within 3 hours) and “completely hydrolyzed” in the series on SW480 cells (within 24 hours). Besides, the prevalence of ulcer with gastric mucosa (10 μM) is given as 0/6; with gastric mucosa (30 μM), 0/6; in the series with gastric mucosa (90 μM) it was 1/6. Moreover, the Ulcer index with gastric mucosa worked out at 3.3 ± 0.12. Also, the “ulcer at high concentration” value in the series on gastric mucosa is given as “only one rat has light ulcer”. Moreover, the “protective effect on peripheral leukocytes (words)” value with peripheral leukocytes is “apparently reduce radiation-induced peripheral leukocyte damage”. Moreover, in the series on peripheral leukocytes, the “protective effect on leukocytes at the late stage of chemotherapy” value was “significantly better than that of amifostine”. Further, the inhibition of tumors in the series with A549 cells (A549, high-dose compound a (25 mg/kg/day) gavage, 5 weeks) is listed as ≥ 60%. Moreover, the “inhibitory effect on the tumor” value in the series with A549 cells (A549, cisplatin 5 mg/kg/week i.p., compound a 5 and 25 mg/kg/day, intermediates 12.5 mg/kg/day each) is listed as “dose-dependent inhibitory effect against tumor”. Further, the “body weights of the animals” value in the series on A549 cells (A549, high dose, during administration) is listed as “not significantly reduced”. Moreover, the “inhibition of the tumor, administered alone” value in the series on HT-29 cells is “only slightly inhibited”.
